Read-outs that look alike come from different tables or passages of the source.
Assays:
harmful plants = details: known from Y. Yamaji et al. 2006; cited from earlier work
SOLNI (Solanum nigrum) = test: pre-emergence greenhouse test; type: in vivo; details: for inhibition at 50 g/ha: Solanum nigrum, use rate 50 g ai/ha, read-out: observed % activity; for inhibition at 50 g/ha / observed activity in % destruction: pre-emergence
Text: (§1) For the pre-emergence treatment, directly after sowing the active compounds, which had been suspended or emulsified in water, were applied by means of finely distributed nozzles. The containers were irrigated gently to promote germination and growth and subsequently covered with transparent plastic hoods until plant had rooted. This cover caused uniform germination of the tests plants, unless this was adversely affected by active compounds.
(§2) The respective herbicides A and/or safener were formulated as 10% by weight strength suspension concentrate and introduced to the spray liquor with the amount of solvent system used for applying the active compound. Herbicide B and/or safener were used as commercially available formulations and introduced to the spray liquor with the amount of solvent system used for applying the active compound. In the examples, the solvent used was water.
(§3) The test period extended over 20 days. During this time, the plants were tended, and their response to the treatments with active compound was evaluated.
(§4) In the following experiments, the herbicidal activity for the individual herbicide compounds (solo application) and of the mixture was assessed 8 days after treatment (8 DAT) and/or 20 days after treatment (20 DAT).
(§5) The evaluation for the damage caused by the chemical compositions was carried out using a scale from 0 to 100%, compared to the untreated control plants. Here, 0 means no damage and 100 means complete destruction of the plants.

SETVI (Setaria viridis) = test: pre-emergence greenhouse test; type: in vivo; details: for observed activity in % destruction: pre-emergence
Text: as §1, §2, §3, §4, §5

SETFA (Setaria faberii) = test: pre-emergence greenhouse test; type: in vivo; details: SETFA pre-emergence 25 g ai/ha
Text: as §1, §2, §3, §4, §5

[1] = system: ABUTH (Abutilon theophrasti); test: pre-emergence greenhouse test; type: in vivo; details: for observed activity in % destruction: pre-emergence, 50 g ai/ha
Text: as §1, §2, §3, §4, §5

[2] = system: PANMI (Panicum milliaceum); test: pre-emergence greenhouse test; type: in vivo
Text: as §1, §2, §3, §4, §5

[3] = system: ECHCG (Echinochloa crus-galli); test: pre-emergence greenhouse test; type: in vivo; details: for inhibition at 25 g/ha: Echinochloa crus-galli, use rate 25 g ai/ha, read-out: observed % activity; for inhibition at 25 g/ha / observed activity in % destruction: pre-emergence
Text: as §1, §2, §3, §4, §5

ERBVI = test: pre-emergence greenhouse test; type: in vivo; details: for observed activity in % destruction: pre-emergence, 25 g ai/ha
Text: as §1, §2, §3, §4, §5

[4] = system: PANDI (Panicum dichotomiflorum); test: pre-emergence greenhouse test; type: in vivo; details: for observed activity in % destruction: pre-emergence
Text: as §1, §2, §3, §4, §5

[5] = system: COMBE (Commelina benghalensis); test: pre-emergence greenhouse test; type: in vivo; details: for inhibition at 12.5 g/ha: Commelina benghalensis, use rate 12.5 g ai/ha, read-out: observed % activity; for inhibition at 12.5 g/ha / observed activity in % destruction: pre-emergence
Text: as §1, §2, §3, §4, §5

[6] = system: CCHEC (Cenchrus echinatus); test: pre-emergence greenhouse test; type: in vivo
Text: as §1, §2, §3, §4, §5

PHBPU (Ipomoea purpurea) = test: pre-emergence greenhouse test; type: in vivo; details: for observed activity in % destruction: pre-emergence, 50 g ai/ha
Text: as §1, §2, §3, §4, §5

[7] = system: AMBEL (Ambrosia artemisifolia); test: pre-emergence greenhouse test; type: in vivo; details: for observed activity in % destruction: pre-emergence, 50 g ai/ha
Text: as §1, §2, §3, §4, §5

[8] = SETVI pre-emergence 6.25 g ai/ha
[9] = SETVI pre-emergence 12.5 g ai/ha
[10] = ABUTH pre-emergence 6.25 g ai/ha
[11] = ABUTH pre-emergence 12.5 g ai/ha
[12] = ECHCG pre-emergence 12.5 g ai/ha
[13] = PANDI pre-emergence 6.25 g ai/ha
[14] = COMBE pre-emergence 6.25 g ai/ha
[15] = COMBE pre-emergence 12.5 g ai/ha

Cn1nc(C(F)(F)F)c(CS(=O)(=O)C2=NOC(C)(C)C2)c1OC(F)F [pyroxasulfone, 3-[5-(difluoromethoxy)-1-methyl-3-(trifluoromethyl)pyrazol-4-ylmethylsulfonyl]-4,5-dihydro-5,5-dimethyl-1,2-oxazole]
post-emergence activity (harmful plants): poor | observed % destruction 20 DAT (SOLNI (Solanum nigrum); SOLNI pre-emergence 6.25 g ai/ha): 50% | observed % destruction 20 DAT (SOLNI (Solanum nigrum); SOLNI pre-emergence 12.5 g ai/ha): 70% | observed % destruction 20 DAT (SOLNI (Solanum nigrum); SOLNI pre-emergence 25 g ai/ha): 90% | observed % destruction 8 DAT (SOLNI (Solanum nigrum); SOLNI pre-emergence 50 g ai/ha): 50% | observed % destruction 20 DAT (SOLNI (Solanum nigrum); SOLNI pre-emergence 50 g ai/ha): 95% | inhibition at 50 g/ha (SOLNI (Solanum nigrum); 192 h, 8 DAT): 50% | inhibition at 50 g/ha (SOLNI (Solanum nigrum); 480 h, 20 DAT): 95% | observed activity in % destruction (SOLNI (Solanum nigrum); 12.5 g ai/ha, 8 DAT): 30% | observed activity in % destruction (SOLNI (Solanum nigrum); 12.5 g ai/ha, 20 DAT): 70% | observed activity in % destruction (SOLNI (Solanum nigrum); 25 g ai/ha, 8 DAT): 30% | observed activity in % destruction (SOLNI (Solanum nigrum); 25 g ai/ha, 20 DAT): 90% | observed activity in % destruction (SOLNI (Solanum nigrum); 50 g ai/ha, 8 DAT): 50% | observed activity in % destruction (SOLNI (Solanum nigrum); 50 g ai/ha, 20 DAT): 95% | observed % destruction 8 DAT (SETVI (Setaria viridis); [8]): 30% | observed % destruction 20 DAT (SETVI (Setaria viridis); [8]): 75% | observed % destruction 8 DAT (SETVI (Setaria viridis); [9]): 70% | observed % destruction 20 DAT (SETVI (Setaria viridis); [9]): 95% | observed % destruction 8 DAT (SETVI (Setaria viridis); SETVI pre-emergence 25 g ai/ha): 80% | observed % destruction 20 DAT (SETVI (Setaria viridis); SETVI pre-emergence 25 g ai/ha): 98% | observed % destruction 8 DAT (SETVI (Setaria viridis); SETVI pre-emergence 50 g ai/ha): 90% | observed % destruction 20 DAT (SETVI (Setaria viridis); SETVI pre-emergence 50 g ai/ha): 100% | observed activity in % destruction (SETVI (Setaria viridis); 6.25 g ai/ha, 8 DAT): 30% | observed activity in % destruction (SETVI (Setaria viridis); 6.25 g ai/ha, 20 DAT): 75% | observed activity in % destruction (SETVI (Setaria viridis); 12.5 g ai/ha, 8 DAT): 70% | observed activity in % destruction (SETVI (Setaria viridis); 12.5 g ai/ha, 20 DAT): 95% | observed activity in % destruction (SETVI (Setaria viridis); 50 g ai/ha, 8 DAT): 90% | observed activity in % destruction (SETVI (Setaria viridis); 50 g ai/ha, 20 DAT): 100% | observed % destruction 20 DAT (SETFA (Setaria faberii)): 98% | observed % destruction 8 DAT [1, 10]: 0% | observed % destruction 20 DAT [1, 10]: 30% | observed % destruction 8 DAT [1, 11]: 0% | observed % destruction 20 DAT [1, 11]: 40% | observed activity in % destruction ([1]; 8 DAT): 40% | observed activity in % destruction ([1]; 20 DAT): 95% | observed % destruction 20 DAT ([2]; PANMI pre-emergence 6.25 g ai/ha): 35% | observed % destruction 20 DAT ([2]; PANMI pre-emergence 25 g ai/ha): 85% | observed % destruction 8 DAT ([2]; PANMI pre-emergence 50 g ai/ha): 75% | observed % destruction 20 DAT ([2]; PANMI pre-emergence 50 g ai/ha): 90% | observed % destruction 8 DAT [3, 12]: 70% | observed % destruction 20 DAT [3, 12]: 98% | observed % destruction 8 DAT ([3]; ECHCG pre-emergence 25 g ai/ha): 75% | observed % destruction 20 DAT ([3]; ECHCG pre-emergence 25 g ai/ha): 98% | observed % destruction 8 DAT ([3]; ECHCG pre-emergence 50 g ai/ha): 90% | observed % destruction 20 DAT ([3]; ECHCG pre-emergence 50 g ai/ha): 100% | inhibition at 25 g/ha ([3]; 192 h, 8 DAT): 75% | inhibition at 25 g/ha ([3]; 480 h, 20 DAT): 98% | observed activity in % destruction ([3]; 12.5 g ai/ha, 8 DAT): 70% | observed activity in % destruction ([3]; 12.5 g ai/ha, 20 DAT): 98% | observed activity in % destruction ([3]; 25 g ai/ha, 8 DAT): 75% | observed activity in % destruction ([3]; 25 g ai/ha, 20 DAT): 98% | observed activity in % destruction ([3]; 50 g ai/ha, 8 DAT): 90% | observed activity in % destruction ([3]; 50 g ai/ha, 20 DAT): 100% | observed % destruction 20 DAT (ERBVI; ERBVI pre-emergence 6.25 g ai/ha): 40% | observed % destruction 20 DAT (ERBVI; ERBVI pre-emergence 12.5 g ai/ha): 55% | observed % destruction 8 DAT (ERBVI; ERBVI pre-emergence 25 g ai/ha): 60% | observed % destruction 20 DAT (ERBVI; ERBVI pre-emergence 25 g ai/ha): 75% | observed activity in % destruction (ERBVI; 8 DAT): 60% | observed activity in % destruction (ERBVI; 20 DAT): 75% | observed % destruction 8 DAT [4, 13]: 65% | observed % destruction 20 DAT [4, 13]: 90% | observed % destruction 8 DAT ([4]; PANDI pre-emergence 25 g ai/ha): 90% | observed % destruction 20 DAT ([4]; PANDI pre-emergence 25 g ai/ha): 100% | observed % destruction 8 DAT ([4]; PANDI pre-emergence 50 g ai/ha): 90% | observed % destruction 20 DAT ([4]; PANDI pre-emergence 50 g ai/ha): 100% | observed activity in % destruction ([4]; 6.25 g ai/ha, 8 DAT): 65% | observed activity in % destruction ([4]; 6.25 g ai/ha, 20 DAT): 90% | observed activity in % destruction ([4]; 12.5 g ai/ha, 8 DAT): 80% | observed activity in % destruction ([4]; 12.5 g ai/ha, 20 DAT): 100% | observed activity in % destruction ([4]; 50 g ai/ha, 8 DAT): 90% | observed activity in % destruction ([4]; 50 g ai/ha, 20 DAT): 100% | observed % destruction 8 DAT [5, 14]: 40% | observed % destruction 20 DAT [5, 14]: 70% | observed % destruction 8 DAT [5, 15]: 75% | observed % destruction 20 DAT [5, 15]: 98% | observed % destruction 8 DAT ([5]; COMBE pre-emergence 25 g ai/ha): 95% | observed % destruction 20 DAT ([5]; COMBE pre-emergence 25 g ai/ha): 100% | inhibition at 12.5 g/ha ([5]; 192 h, 8 DAT): 75% | inhibition at 12.5 g/ha ([5]; 480 h, 20 DAT): 98% | observed activity in % destruction ([5]; 6.25 g ai/ha, 8 DAT): 40% | observed activity in % destruction ([5]; 6.25 g ai/ha, 20 DAT): 70% | observed activity in % destruction ([5]; 12.5 g ai/ha, 8 DAT): 75% | observed activity in % destruction ([5]; 12.5 g ai/ha, 20 DAT): 98% | observed activity in % destruction ([5]; 25 g ai/ha, 8 DAT): 95% | observed activity in % destruction ([5]; 25 g ai/ha, 20 DAT): 100% | observed % destruction 20 DAT ([6]; CCHEC pre-emergence 6.25 g ai/ha): 35% | observed % destruction 20 DAT ([6]; CCHEC pre-emergence 12.5 g ai/ha): 65% | observed % destruction 20 DAT (PHBPU (Ipomoea purpurea); PHBPU pre-emergence 6.25 g ai/ha): 0% | observed % destruction 20 DAT (PHBPU (Ipomoea purpurea); PHBPU pre-emergence 12.5 g ai/ha): 55% | observed % destruction 20 DAT (PHBPU (Ipomoea purpurea); PHBPU pre-emergence 50 g ai/ha): 75% | observed activity in % destruction (PHBPU (Ipomoea purpurea); 8 DAT): 30% | observed activity in % destruction (PHBPU (Ipomoea purpurea); 20 DAT): 75% | observed % destruction 20 DAT ([7]; AMBEL pre-emergence 6.25 g ai/ha): 0% | observed % destruction 20 DAT ([7]; AMBEL pre-emergence 12.5 g ai/ha): 40% | observed % destruction 20 DAT ([7]; AMBEL pre-emergence 25 g ai/ha): 40% | observed % destruction 8 DAT ([7]; AMBEL pre-emergence 50 g ai/ha): 50% | observed % destruction 20 DAT ([7]; AMBEL pre-emergence 50 g ai/ha): 85% | observed activity in % destruction ([7]; 8 DAT): 50% | observed activity in % destruction ([7]; 20 DAT): 85%

Source: patent US20110015067A1, “Herbicidal Compositions Comprising Pyroxasulfone” (BASF SE, priority 2008, published 2011)
